Values joined by “and” are separate entries in the source; they are usually repeats but may differ in a detail not shown here. Equal entries are not always repeated.
Assays:
E. coli RdrB (EcRdrB) [1] = target: T1, E. coli RdrB (EcRdrB) (Escherichia coli, UniProt A0AAN0NNX4); experiment: HPLC deamination assay (ATP to ITP) after phosphatase treatment; type: biochemical; details: 1 mM substrate, 1 μM RdrB, 30 min, 37 °C, pH 7.5, 10 mM MgCl2, 100 μM ZnSO4, 50 mM KCl, 1 mM TCEP
T1 construct: full-length, ~90 kDa, N-terminal 6xHis-SUMO2 tag removed by SENP2, expressed in E. coli BL21-RIL; dodecamer; Zn site H152, H154, H498, H530, catalytic E501
T1 sequence (A0AAN0NNX4 1-799): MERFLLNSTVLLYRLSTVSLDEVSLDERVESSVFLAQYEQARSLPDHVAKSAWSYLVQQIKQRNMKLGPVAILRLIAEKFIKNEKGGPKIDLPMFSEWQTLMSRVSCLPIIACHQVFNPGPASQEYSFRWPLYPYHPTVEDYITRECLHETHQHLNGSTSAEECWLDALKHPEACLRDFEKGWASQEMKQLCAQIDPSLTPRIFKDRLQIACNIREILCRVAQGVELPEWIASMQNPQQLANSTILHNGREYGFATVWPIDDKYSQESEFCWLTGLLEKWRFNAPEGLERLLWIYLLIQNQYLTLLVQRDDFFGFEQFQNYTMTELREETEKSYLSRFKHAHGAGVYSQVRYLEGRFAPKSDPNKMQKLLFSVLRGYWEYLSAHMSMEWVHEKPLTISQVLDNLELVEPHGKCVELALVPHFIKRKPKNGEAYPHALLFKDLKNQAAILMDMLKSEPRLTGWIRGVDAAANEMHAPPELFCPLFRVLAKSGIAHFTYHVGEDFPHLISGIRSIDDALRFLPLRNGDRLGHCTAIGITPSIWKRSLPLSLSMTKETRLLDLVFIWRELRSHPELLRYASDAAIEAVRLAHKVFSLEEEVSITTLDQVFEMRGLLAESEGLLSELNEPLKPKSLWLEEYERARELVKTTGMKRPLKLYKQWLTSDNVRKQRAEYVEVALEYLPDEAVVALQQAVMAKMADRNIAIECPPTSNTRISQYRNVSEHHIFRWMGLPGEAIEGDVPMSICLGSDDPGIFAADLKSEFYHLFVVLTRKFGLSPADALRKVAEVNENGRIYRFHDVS

E. coli RdrA (EcRdrA) = target: T2, E. coli RdrA (EcRdrA) (Escherichia coli, UniProt A0AAN0NNX5); experiment: malachite green phosphate release (NTPase); type: biochemical; details: 1 mM NTP, 5 μM RdrA, 2 h, pH 7.5, 10 mM MgCl2, 50 mM KCl, 1 mM TCEP
T2 construct: full-length, N-terminal 6xHis-SUMO2 tag removed by SENP2, expressed in E. coli BL21-RIL; heptamer, active site between neighbouring subunits; Walker A G81, K82, T83, Walker B D221, D222
T2 sequence (A0AAN0NNX5 1-947): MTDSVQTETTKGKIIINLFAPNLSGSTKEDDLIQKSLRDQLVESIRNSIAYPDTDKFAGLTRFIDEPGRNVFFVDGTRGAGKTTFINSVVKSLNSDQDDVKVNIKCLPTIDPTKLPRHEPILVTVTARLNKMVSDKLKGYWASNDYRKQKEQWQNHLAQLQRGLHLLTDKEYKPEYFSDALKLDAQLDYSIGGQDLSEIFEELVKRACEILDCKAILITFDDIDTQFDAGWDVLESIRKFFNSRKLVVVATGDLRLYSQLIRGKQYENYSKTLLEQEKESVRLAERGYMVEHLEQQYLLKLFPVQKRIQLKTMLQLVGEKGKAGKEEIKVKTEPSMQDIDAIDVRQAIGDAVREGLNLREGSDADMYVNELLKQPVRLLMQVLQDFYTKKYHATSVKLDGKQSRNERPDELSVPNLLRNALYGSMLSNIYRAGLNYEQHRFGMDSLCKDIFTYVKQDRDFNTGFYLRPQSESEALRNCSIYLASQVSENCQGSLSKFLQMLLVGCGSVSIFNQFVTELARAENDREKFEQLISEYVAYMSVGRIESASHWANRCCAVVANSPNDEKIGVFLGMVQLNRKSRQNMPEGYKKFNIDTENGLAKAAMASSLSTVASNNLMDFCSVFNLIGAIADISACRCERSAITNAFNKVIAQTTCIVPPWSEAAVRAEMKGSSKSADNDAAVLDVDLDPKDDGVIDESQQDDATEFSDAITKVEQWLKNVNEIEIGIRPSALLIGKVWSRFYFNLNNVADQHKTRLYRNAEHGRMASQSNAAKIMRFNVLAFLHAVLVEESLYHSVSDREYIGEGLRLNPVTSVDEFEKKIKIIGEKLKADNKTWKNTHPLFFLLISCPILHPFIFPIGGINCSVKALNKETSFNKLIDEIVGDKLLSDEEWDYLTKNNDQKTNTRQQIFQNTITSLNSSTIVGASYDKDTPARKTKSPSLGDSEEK

E. coli RdrB (EcRdrB) [2] = target: T1, E. coli RdrB (EcRdrB); experiment: HPLC deamination assay (dATP to dITP) after phosphatase treatment; type: biochemical; details: 1 mM substrate, 1 μM RdrB, 30 min, 37 °C, pH 7.5, 10 mM MgCl2, 100 μM ZnSO4, 50 mM KCl, 1 mM TCEP
[3] = target: E. coli RdrA (RADAR system of E. coli P0304799.3) (E. coli P0304799.3); experiment: cryo-EM structure; purified E. coli RdrA alone, 2.40 mg/mL, vitrified at 4°C; Titan Krios 300 kV
[4] = target: E. coli RdrB (RADAR system of E. coli P0304799.3) (E. coli P0304799.3); experiment: cryo-EM structure; purified E. coli RdrB alone, 2.35 mg/mL, vitrified at 4°C; Titan Krios 300 kV
[5] = target: S. suis RdrA (RADAR system of Streptococcus suis SS993) (Streptococcus suis SS993); experiment: cryo-EM structure; purified S. suis RdrA alone; Talos Arctica 200 kV; single heptameric rings and double stacked rings picked

## Nc1ncnc2c1ncn2[C@@H]1O[C@H](COP(=O)(O)OP(=O)(O)OP(=O)(O)O)[C@@H](O)[C@H]1O [ATP]
E. coli RdrB (EcRdrB) [1]
  HPLC deamination assay (ATP to ITP) after phosphatase treatment: E. coli RdrB robustly deaminates both ATP and dATP substrates with equal efficiency
E. coli RdrA (EcRdrA)
  malachite green phosphate release (NTPase): RdrA is an active ATPase in vitro that preferentially hydrolyzes ATP

## O=c1[nH]cnc2c1ncn2[C@@H]1O[C@H](COP(=O)(O)OP(=O)(O)OP(=O)(O)O)[C@@H](O)[C@H]1O [ITP]
E. coli RdrA (EcRdrA); weak substrate
  malachite green phosphate release (NTPase): Compared with ATP, RdrA only weakly hydrolyzes ITP and GTP

## Nc1ncnc2c1ncn2[C@H]1C[C@H](O)[C@@H](COP(=O)(O)OP(=O)(O)OP(=O)(O)O)O1 [dATP]
E. coli RdrB (EcRdrB) [2]
  HPLC deamination assay (dATP to dITP) after phosphatase treatment: E. coli RdrB robustly deaminates both ATP and dATP substrates with equal efficiency

## E. coli RdrA (RADAR system of E. coli P0304799.3) (enzyme)
[3]
  stoichiometry N: 7

## E. coli RdrB (RADAR system of E. coli P0304799.3) (enzyme)
[4]
  stoichiometry N: 12

## S. suis RdrA (RADAR system of Streptococcus suis SS993) (enzyme)
[5]
  stoichiometry N: 7 and 14
